Measurements as given in patent publication US9724344B2, “Enhanced delivery of drug compositions to treat life threatening infections” (BOARD OF REGENTS, THE UNIVERSITY OF TEXAS SYSTEM, priority 2004, dated 2017).

How the values were obtained:
[1] = Dissolution testing, United States Pharmacopeia 24 Type 2 apparatus (Examples 19-23); format: physicochemical; conditions: Avg
Procedure: For Examples 19-23, dissolution testing is performed on the samples using a United States Pharmacopeia 24 Type 2 apparatus (Distek Dissolution System […] with a TCS0200C heater/circulator; Crescent Scientific Pvt. Ltd.; Goregaon-East, Mumbai, India).

IL-12p70 = assay: ELISA of BAL supernatant for IL-12 elevation (inflammatory response); format: in vivo, mice; conditions: pulmonary administration, compared to excipients alone and saline
Procedure: FIG. 5 is a chart depicting lung concentration levels of IL-12p70 for an embodiment of the present invention. Mean IL-12p70 concentrations measured according to Example 32 via ELISA assay of the positive control, negative control and BAL supernatants of sacrificed mice. Surgery was performed on sacrificed mice to expose the pleural cavity and trachea at the throat. A small incision was cut into the trachea and a cannula consisting of a 23 gauge needle with a sheath of plastic tubing (0.037″ outside diameter (OD) and 0.025″ ID) was inserted through the incision to the base of the trachea and clamped to seal the opening. An aliquot (0.75 mL) of phosphate buffered saline was instilled through the cannula into the lungs and then removed to wash the bronchial and alveolar surfaces. This process was repeated for a total of three washes. The phosphate buffered saline containing cells was placed into centrifuge vials and centrifuged at 300 rpm (MiniSpin Plus. Eppendorf International, Hamburg, Del.). The supernatant was removed leaving the collected cells in the pellet. The supernatant from the BAL (Bronchoalveolar Lavage) was analyzed by enzyme-linked immunosorbent assay (ELISA) for IL-12 elevation (n=2 per sample tested).

[2] = cited from earlier work
airway macrophages = assay: Macrophage uptake of ITZ dosed via pulmonary administration; format: in vivo; conditions: samples taken on days 1, 3, 8 and 12
From the text: Cells (airway macrophages) were recovered from the lung and subjected to drug extraction and analyzed by mass spectroscopy for confirmation of ITZ presence in the macrophage.

Percent Dissolved ([1]; 2 minutes) | Percent Dissolved ([1]; 5 minutes) | Percent Dissolved ([1]; 10 minutes) | Percent Dissolved ([1]; 15 minutes) | Percent Dissolved ([1]; 20 minutes) | Percent Dissolved ([1]; 25 minutes) | Percent Dissolved ([1]; 30 minutes) | Percent Dissolved ([1]; 60 minutes) | Percent Dissolved ([1]; 120 minutes) | IL-12 elevation in BAL supernatant (IL-12p70) | ITZ presence in airway macrophages (mass spectroscopy) (airway macrophages) | SMILES | aqueous solubility [2]
3.1% | 4.8% | 9.1% | 12.7% | 15.5% | 18.2% | 19.7% | 38.9% | 100.0% |  |  | CCC(C)n1ncn(-c2ccc(N3CCN(c4ccc(OCC5COC(Cn6cncn6)(c6ccc(Cl)cc6Cl)O5)cc4)CC3)cc2)c1=O (stereo not drawn) [Comparative Example 25] | 
 |  |  |  |  |  |  |  |  | does not result in IL-12 elevation | all showed the presence of ITZ | CCC(C)n1ncn(-c2ccc(N3CCN(c4ccc(OCC5COC(Cn6cncn6)(c6ccc(Cl)cc6Cl)O5)cc4)CC3)cc2)c1=O (stereo not drawn) [ITZ, itraconazole] | < 1 µg/mL
